From patent publication US5962291A, “Metal dependent catalytic antibodies and method for producing the same” (The Regents of the University of Colorado, priority 1997, dated 1999)

What was measured:
Type in all cases: biochemical, mice
[1] = system: monoclonal antibody 6A1A6 (metal dependent catalytic antibody, IgG); experiment: Hydrolysis of 14C-labeled ATP, ADP and AMP by antibody 6A1A6, silica TLC analysis; conditions: for Km / Vmax: 37° C., 0.5 mM EDTA, 1 mM MgCl2, 40 mM CHES, pH 9.0, 1.9 μM antibody
Procedure: (§1) General. […] EDTA was added to reactions to a concentration that removed the catalytic activity. MgCl2 or other metal salts were then added back to the reactions at the optimum level. Antibody concentration was adjusted for each system to obtain useable data in a reasonable reaction time and varied from 0.5-4 μM.
(§2) Kinetic analyses were done by standard methods as described. Rates were defined as initial velocities and reported in min^-1 or sec^-1. Each assay was done in duplicate or triplicate to allow for error analysis. Background rates were measured using an identical reaction mixture without antibody present. Michales-Menten parameters kcat and Km were derived from Eadie-Hofstee or weighted Lineweaver-Burk plots (using the computer program Enzyme Kinetics 1.0, Macintosh, Trinity Software). Inhibitory constants, Ki, were derived from Dixon or Lineweaver-Burk plots.
Thin Layer Chromatography. Reactions were quenched and analyzed by spotting on a TLC plate. Two systems were used. PEI-cellulose coated plates were run in 1.5 M formic acid/0.5 M LiCl (Rf values: […], 0.3; Pi, 0.8). (In some cases it was useful to pre-run the TLC plate in H2 O to reduce smearing). Silica coated plates were run in isopropanol:NH4OH:H2 O, (50:25:25) (Rf values: ATP, 0.36; ADP, 0.55; AMP, 0.7; and Adenosine, 0.95). Assays involving the visualization of pyrophosphate used two TLC systems simultaneously: the silica system described (Rf values: PPi,O; Pi, 0.3), and a PEI-cellulose system run in 0.3 M sodium phosphate, pH=7.0 (Rf values: ATP, 0.2; ADP, 0.4; AMP, 0.6; PPi, 0.15; and Pi, 0.65). Radioactivity was quantitated using a Molecular Dynamics Phosphorlmager.
Kinetic Assays Using ^14 C-Labeled Compounds. Assays were performed with [8-^14 C]ATP, [8-^14 C]ADP, and [^14 C(U)]AMP. […] Immediately before each reaction, the solution was evaporated to dryness in vacuo and the compound resuspended in an equal volume of water. […] Reactions were quenched and analyzed by the silica TLC system.

[2] = target: monoclonal antibody 6A1A6 (metal dependent catalytic antibody, IgG); experiment: Spectrophotometric (405 nm) hydrolysis of p-nitrophenyl ester substrates by antibody 6A1A6; conditions: for Ki: pH 9.0, 10 mM MgCl2
Procedure: as §1, with “General. Because antibody 6A1A6, see Table 2, was metal dependent, a few precautions were taken to insure consistent results for all assays.” for “General.”
as §2
p-Nitrophenyl Esters as Substrates. A useful system to assess cleavage utilized substrates containing esters with p-nitrophenol leaving groups. This assay was fast, reproducible and much more trouble free than the fluorescence assays. It relied on the fact that the anion cleavage product, p-nitrophenolate, is yellow at basic pH and its appearance can be followed spectrophotometrically at 405 nm.
Antibody 6A1A6 was assayed spectrophotometrically for its ability to cleave the above mentioned substrates containing the p-nitrophenyl leaving group at 405 nm using a Molecular Devices Vmax® kinetic microplate reader. Kinetic assays were performed in triplicate at 25° C. in 40 mM TAPS, 150 mM NaCl, 10 mM MgCl2, 0.5-0.6 μM antibody, pH=9.0.
Phosphodiester Substrate. […] This represents the first report of a catalytic antibody capable of hydrolyzing a phosphodiester bond. pNPPT is normally used as a substrate for snake venom phosphodiesterase. […] The uncatalyzed rate under these conditions was 1.35×10^-6 min^-1. […] The Ki is defined as the negative x-coordinate of the intersection point of the lines in a Dixon plot.
Phosphomonoester Substrate. Under reaction condition identical to those used for pNPPT, the antibody also catalyzes the hydrolysis of p-nitrophenyl phosphate (pNPP). […] The uncatalyzed rate was 3.4×10^-6 min^-1.

[3] = target: monoclonal antibody 6A1A6 (metal dependent catalytic antibody, IgG); experiment: Hydrolysis of oligomer T15 (DNase activity) by antibody 6A1A6, inhibition by hapten; conditions: substrate oligomer T15; pH 9, 1 mM Mg2+; read-out: Ki (competitive inhibition of DNase activity)
Procedure: as §2
It was unknown what type of specificity antibody 6A1A6 would have for a DNA polymer. Several possible activities were monitored under conditions of pH 9 and 1 mM Mg^2+ that were optimal for ATP hydrolysis.
Kinetic Parameters. Kinetic experiments were performed with T15 as a substrate. Due to the very slow rate of hydrolysis, experiments were done under single turnover conditions with enzyme excess.
Control Experiments. Standard controls were performed using oligomer T15 as a substrate. Immunoprecipitation reduced activity by 93%. The remaining activity could be due to incomplete immunoprecipitation, but could also be due to a contaminating nuclease. […] Fab fragments retained 46±17% of the original activity.

[4] = substrate pNPP, read-out: Ki (competitive inhibition of pNPP hydrolysis)

Nc1ncnc2c1ncn2[C@@H]1O[C@H](COP(=O)(O)OP(=O)(O)O)[C@@H](O)[C@H]1O [ADP, adenosine diphosphate]
Km [1]: 70 ± 8 µM
Vmax [1]: 120 ± 20 s⁻¹

Nc1ncnc2c1ncn2[C@@H]1O[C@H](COP(=O)(O)O)[C@@H](O)[C@H]1O [AMP]
Km [1]: 161 ± 21 µM
Vmax [1]: 102 ± 3 s⁻¹

Nc1ncnc2c1ncn2[C@@H]1O[C@H](COP(=O)(O)OP(=O)(O)OP(=O)(O)O)[C@@H](O)[C@H]1O [ATP, Adenosine triphosphate]
Km [1]: 1400 ± 123 µM

O=[N+]([O-])c1ccc(O)cc1 [p-nitrophenol]
Ki [2, 4]: 9.31 ± 1.94 µM
Ki ([2]; substrate pNPPT, product inhibition, read-out: Ki for p-nitrophenol (Dixon plot)): 10.1 ± 2.1 µM

Cc1cn([C@H]2C[C@H](O)[C@@H](COP(=O)(O)Oc3ccc([N+](=O)[O-])cc3)O2)c(=O)[nH]c1=O [pNPPT, thymidine-5'-monophosphate-p-nitrophenyl ester]
kcat (apparent), pNPPT as substrate ([2]; 10 mM MgCl2, 40 mM TAPS, 150 mM NaCl, pH 9.0, 25° C.): 0.031±0.05 min^-1
Km ([2]; 10 mM MgCl2, 40 mM TAPS, 150 mM NaCl, pH 9.0, 25° C., read-out: Km (apparent), pNPPT as substrate): 290 ± 80 µM

thymidine 3'-O-(7-hydroxy-4-methyl coumarin) phosphorodithioate [hapten]
Ki ([1]; substrate ATP, read-out: Ki (competitive inhibitor of ATP hydrolysis)): 559 µM
Ki [2, 4]: 199 ± 54 µM
Ki [3]: 758 ± 57 µM
